Experimental data from patent publication US20240245694A1, “Tricyclic Compounds and their Uses” (Novartis AG, priority 2022, published 2024).

Columns and labels:
SW48 cells = experiment: Proliferation assay SW48 (CellTiterGlo, 96 hours); type: cell-based; settings: Homo sapiens
Source text: (§1) The colon carcinoma cell lines SW48 (RRID: CVCL_1724), HCT 116 (RRID: CVCL_0291) and SNU-407 (RRID: CVCL_5058) were obtained from ATCC. The WRN-knockdown insensitive colon carcinoma cell line DLD-1 (RRID: CVCL_0248) was obtained from the Korean Cell Line Bank (KCLB), and used to generate a derivative in which the endogenous WRN gene copies were knocked out by CRISPR-mediated editing using standard CRISPR methods. The resulting cell line, DLD1-WRN-KO, was used to assess potential off-target compound effects.
(§2) SW48, SNU-407 and DLD1-WRN-KO cells were cultured in growth medium composed of RPMI-1640 (Amimed Cat #1-41F22-1), 2 mM L-Glutamine (Amimed Cat #5-10K50), 10 mM HEPES (Gibco Cat #15630-056), 1 mM sodium pyruvate (Amimed Cat #5-60F00-H), 1× Penicillin-Streptomycin (Amimed Cat #4-01F00-H) and 10% fetal calf serum (Amimed Cat #2-01F30-G, Lot #LB11566P). HCT 116 cells were cultured in growth medium composed of McCoys 5A (Amimed catalog #1-18F01-1), 2 mM L-Glutamine (Amimed Cat #5-10K50), 1× Penicillin-Streptomycin (Amimed Cat #4-01F00-H) and 10% fetal calf serum (Amimed Cat #2-01F30-G, Lot #LB11566P). All cells were maintained at 37° C. in a humidified 5% CO2 incubator.
(§3) Following filtration through a Steriflip-NY 20 μm filter (Millipore Cat #SCNY00020), trypsinized cells were seeded in 100 microliters growth medium at 2′000 (SW48) or 1′500 (SNU-407, DLD1-WRN-KO, HCT 116) cells/well into white, clear-bottom 96-well plates (Costar Cat #3903). Three replicate plates were prepared for each compound treatment condition. In addition, one plate (termed “day 0”) was prepared to quantify the number of viable cells at the time of compound addition. Following overnight incubation at 37° C. in a humidified 5% CO2 atmosphere, eight 3-fold serial dilutions of a given compound stock (obtained at a concentration of 10 mM in DMSO and stored at 4° C.) were dispensed directly into each of the triplicate assay plates using a HP 300D non-contact Digital Dispenser (TECAN). The final concentration of DMSO was normalized to 0.1% in all wells. 96 hours after compound addition, cellular ATP levels as a surrogate for cell viability was assessed following addition of 50 microliters CellTiterGlo (Promega Cat #G7573) reagent and luminescence quantification on a MPLEX multi-mode plate-reader (TECAN) following a 10 minute incubation at room temperature. The number of viable cells in the “day 0” plate were quantified identically on the day of compound addition.
(§4) For data analysis, the assay background signal that was determined in wells containing medium, but no cells, was subtracted from all other data points prior to further calculations. The extent of growth inhibition and potential cell kill was assessed by comparing the ATP levels (measured using CellTiterGlo, Promega) in compound-treated cells with those present at the time of compound addition. To this end, the following conditional concept was programmatically applied in HELIOS, an in-house software applying a multi-step decision tree to arrive at optimal concentration response curve fits (Gubler et al, SLAS DOI: 10.1177/2472555217752140) to calculate % growth (% G) for each compound-treated well: % G=(T−V0)/V0))*100 when T<V0, and % G=(T−V0)/(V−V0)))*100 when T>V0, where V0 is the viability level at time of compound addition, while V and T represent vehicle-control and compound-treated viability levels, respectively, at the end of the compound incubation. 100%, 0% and −100% signify absence of growth inhibition, growth stasis, and complete cell kill, respectively. Compound concentrations leading to half-maximal growth inhibition (G150) and residual cell viability at the highest tested compound concentration (Data (cmax), expressed in percent) were routinely calculated. Data analysis can also be carried out using commercially available software designed to derive IC50 values using 4-parameter fits (e.g. GraphPad Prism, XL fit). […]

[1] = target: WRN helicase (core helicase motif aa N517-P1238) (Homo sapiens (Human), UniProt Q14191); experiment: WRN ATPase assay (ADP-Glo), DNA dependent ATP hydrolysis; type: biochemical; settings: 3 hours pre-incubation, 300 micromolar ATP, FLAP26 ssDNA; geometric means of at least 2 determinations
Source text: An ATPase assay was set up to measure the DNA dependent ATP hydrolysis activity of WRN helicase. This assay was used also to assess the inhibition properties of compounds of the invention on DNA dependent WRN ATPase activity.
The core helicase motif of the WRN protein (aa N517-P1238) was produced for this assay (protein production as described above). A 45 oligonucleotide sequence called “FLAP26” as described by Brosh et al., 2009, DOI: 10.1074/jbc.M111446200 ([…]; SEQ ID NO: 2) was purchased from IDT (Integrated DNA Technologies, Leuven, Belgium) and used as single strand DNA substrate. The ADP-Glo assay kit (Promega, Madison, WI) allowing the quantification of ADP produced in ATP hydrolysis reactions was used for setting up this assay. Time course experiments were first performed in order to determine the best enzymatic assay conditions (including buffer conditions, reaction time and concentrations of protein, ATP and DNA substrates). A typical reaction consists of 10 nM WRN protein, 0.2 nM FLAP26, and 300 micromolar ATP in the following assay buffer: 30 mM Tris pH7.5, 2 mM MgCl2, 0.02% BSA, 50 mM NaCl, 0.1% pluronic F127 prepared in DNAse free water.
To evaluate the inhibition properties of compounds of the invention, serial dilutions were prepared in DMSO (10 half log dilutions from a 10 mM DMSO solution). 50 nanoliters of each concentration was pre-incubated for 3 hours in a 384 small volume assay plate (Greiner #784075) with 2.5 microliters of a 20 nM WRN helicase protein in assay buffer with 600 micromolar ATP. Control wells were included with a “high control” (no inhibition), containing DMSO with no test compound, and “low controls” (maximal inhibition), containing buffer without protein. The reaction was started by addition of 2.5 microliters of FLAP26 at 0.4 nM and incubated for 30 minutes at room temperature. The reaction was stopped with the addition of 5 microliters of the first ADP-Glo reagent and incubated for one hour to remove the excess amount of ATP. Afterwards, 10 microliters of ATP detection reagent was added and incubated for an additional hour before reading. Luminescence output was recorded using Tecan 1000 reader, with 5 minutes delay before reading. Each concentration of compound was tested in duplicates in the assay plate.
Data analysis was carried out using an in-house developed software (Novartis Helios software application, Novartis Institutes for BioMedical Research, unpublished) using the methods described by Formenko et al., 2006, DOI: 10.1016/j.cmpb.2006.01.008. Following normalization of activity values for the wells to % inhibition (% inhibition=[(high control-sample)/(high control-low control)]×100), IC50 fitting was carried out from the duplicate determinations present on each plate according to [4]. Data analysis can also be carried out using commercially available software designed to derive IC50 values using 4-parameter fits (e.g. GraphPad Prism, XL fit). The reported IC50 values are the geometrical means of at least 2 independent replicates.

DLD1-WRN-KO cells = experiment: Proliferation assay DLD1-WRN-KO (CellTiterGlo, 96 hours), off-target effects; type: cell-based; settings: Homo sapiens
Source text: as §1, §2, §3, §4

Chain of WRN helicase (core helicase motif aa N517-P1238) (Q14191 517-1238): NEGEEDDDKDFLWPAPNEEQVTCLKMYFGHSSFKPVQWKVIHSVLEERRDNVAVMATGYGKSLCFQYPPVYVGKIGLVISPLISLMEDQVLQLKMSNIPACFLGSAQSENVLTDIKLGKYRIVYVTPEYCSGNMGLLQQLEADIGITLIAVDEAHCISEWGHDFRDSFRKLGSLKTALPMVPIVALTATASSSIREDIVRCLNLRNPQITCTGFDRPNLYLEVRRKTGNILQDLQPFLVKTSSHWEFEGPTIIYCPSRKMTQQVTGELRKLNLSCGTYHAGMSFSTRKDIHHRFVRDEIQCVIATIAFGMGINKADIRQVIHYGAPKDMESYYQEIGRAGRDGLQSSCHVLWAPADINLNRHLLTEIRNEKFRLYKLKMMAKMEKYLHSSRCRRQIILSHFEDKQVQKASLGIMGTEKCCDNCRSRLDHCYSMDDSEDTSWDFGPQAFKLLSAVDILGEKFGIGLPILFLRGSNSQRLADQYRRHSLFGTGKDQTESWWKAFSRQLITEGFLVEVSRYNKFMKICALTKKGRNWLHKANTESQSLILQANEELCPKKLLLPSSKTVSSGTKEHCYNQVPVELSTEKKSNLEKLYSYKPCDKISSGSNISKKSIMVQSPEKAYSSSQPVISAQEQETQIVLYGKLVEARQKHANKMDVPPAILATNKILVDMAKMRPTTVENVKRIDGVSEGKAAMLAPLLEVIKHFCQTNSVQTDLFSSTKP

| GI50 (SW48 cells) [µM] | IC50 [1] [µM] | GI50 (DLD1-WRN-KO cells) [µM] | SMILES |
| --- | --- | --- | --- |
| > 10 | 26 | > 10 | Cc1ncnc(C(=O)N2CCN(c3c4n(c5nc(N6CCOCC6)nn5c3=O)[C@H](C(=O)Nc3ccc(C(F)(F)F)cc3Cl)C[C@@H]4C)CC2)c1O [Example 2B, (7S,9S)—N-(2-chloro-4-(trifluoromethyl)phenyl)-6-(4-(5-hydroxy-6-methylpyrimidine-4-carbonyl)piperazin-1-yl)-7-methyl-2-morpholino-5-oxo-5,7,8,9-tetrahydropyrrolo[1,2-c][1,2,4]triazolo[1,5-a]pyrimidine-9-carboxamide] |
| 1 | 0.1 | > 10 | Cc1ncnc(C(=O)N2CCN(c3c4n(c5nc(N6CCOCC6)nn5c3=O)[C@@H](C(=O)Nc3ccc(C(F)(F)F)cc3Cl)C[C@@H]4C)CC2)c1O [Example 2C, (7S,9R)—N-(2-chloro-4-(trifluoromethyl)phenyl)-6-(4-(5-hydroxy-6-methylpyrimidine-4-carbonyl)piperazin-1-yl)-7-methyl-2-morpholino-5-oxo-5,7,8,9-tetrahydropyrrolo[1,2-c][1,2,4]triazolo[1,5-a]pyrimidine-9-carboxamide] |
| > 10 | 24 | > 10 | Cc1ncnc(C(=O)N2CCN(c3c4n(c5nc(N6CCOCC6)nn5c3=O)[C@H](C(=O)Nc3ccc(C(F)(F)F)cc3Cl)C[C@H]4C)CC2)c1O [Example 2D, (7R,9S)—N-(2-chloro-4-(trifluoromethyl)phenyl)-6-(4-(5-hydroxy-6-methylpyrimidine-4-carbonyl)piperazin-1-yl)-7-methyl-2-morpholino-5-oxo-5,7,8,9-tetrahydropyrrolo[1,2-c][1,2,4]triazolo[1,5-a]pyrimidine-9-carboxamide] |
| 0.04 | 0.03 | > 10 | Cc1cc(F)c(O)c(C(=O)N2CCN(c3c4n(c5nc(N6CCOCC6)nn5c3=O)[C@@H](C(=O)Nc3ccc(C(F)(F)F)cc3Cl)C[C@H]4C)CC2)n1 [Example 3A, (7R,9R)—N-(2-chloro-4-(trifluoromethyl)phenyl)-6-(4-(4-fluoro-3-hydroxy-6-methylpicolinoyl)piperazin-1-yl)-7-methyl-2-morpholino-5-oxo-5,7,8,9-tetrahydropyrrolo[1,2-c][1,2,4]triazolo[1,5-a]pyrimidine-9-carboxamide] |
| > 10 | 6 | > 10 | Cc1cc(F)c(O)c(C(=O)N2CCN(c3c4n(c5nc(N6CCOCC6)nn5c3=O)[C@H](C(=O)Nc3ccc(C(F)(F)F)cc3Cl)C[C@@H]4C)CC2)n1 [Example 3B, (7S,9S)—N-(2-chloro-4-(trifluoromethyl)phenyl)-6-(4-(4-fluoro-3-hydroxy-6-methylpicolinoyl)piperazin-1-yl)-7-methyl-2-morpholino-5-oxo-5,7,8,9-tetrahydropyrrolo[1,2-c][1,2,4]triazolo[1,5-a]pyrimidine-9-carboxamide] |
| 0.1 | 0.09 | > 10 | Cc1ncnc(C(=O)N2CCN(c3c4n(c5nc(C6=CCOCC6)nn5c3=O)[C@@H](C(=O)Nc3ccc(C(F)(F)F)nc3Cl)C[C@H]4C)CC2)c1O [Example 4A, (7R,9R)—N-(2-chloro-6-(trifluoromethyl)pyridin-3-yl)-2-(3,6-dihydro-2H-pyran-4-yl)-6-(4-(5-hydroxy-6-methylpyrimidine-4-carbonyl)piperazin-1-yl)-7-methyl-5-oxo-5,7,8,9-tetrahydropyrrolo[1,2-c][1,2,4]triazolo[1,5-a]pyrimidine-9-carboxamide] |
| 6 | 9 | > 10 | Cc1ncnc(C(=O)N2CCN(c3c4n(c5nc(C6=CCOCC6)nn5c3=O)[C@H](C(=O)Nc3ccc(C(F)(F)F)nc3Cl)C[C@@H]4C)CC2)c1O [Example 4B, (7S,9S)—N-(2-chloro-6-(trifluoromethyl)pyridin-3-yl)-2-(3,6-dihydro-2H-pyran-4-yl)-6-(4-(5-hydroxy-6-methylpyrimidine-4-carbonyl)piperazin-1-yl)-7-methyl-5-oxo-5,7,8,9-tetrahydropyrrolo[1,2-c][1,2,4]triazolo[1,5-a]pyrimidine-9-carboxamide] |
| 0.03 | 0.02 | > 10 | C[C@@H]1C[C@H](C(=O)Nc2ccc(C(F)(F)F)cc2Cl)n2c1c(N1CCN(C(=O)c3ncc4c(c3O)OCC4)CC1)c(=O)n1nc(C3=CCOCC3)nc21 [Example 5A, (7R,9R)—N-(2-chloro-4-(trifluoromethyl)phenyl)-2-(3,6-dihydro-2H-pyran-4-yl)-6-(4-(7-hydroxy-2,3-dihydrofuro[3,2-c]pyridine-6-carbonyl)piperazin-1-yl)-7-methyl-5-oxo-5,7,8,9-tetrahydropyrrolo[1,2-c][1,2,4]triazolo[1,5-a]pyrimidine-9-carboxamide] |
